molecular target: T1, rat B1R (Rattus norvegicus, UniProt P97583); experiment: FLIPR Ca2+ functional study on bradykinin receptor 1 (rB1R CHO K1 cells); type: cell-based; settings: % inhibition rat B1R at 10 μM
T1 construct: expressed in transfected cells; host or cells: CHO K1 cells
T1 sequence (P97583 1-337): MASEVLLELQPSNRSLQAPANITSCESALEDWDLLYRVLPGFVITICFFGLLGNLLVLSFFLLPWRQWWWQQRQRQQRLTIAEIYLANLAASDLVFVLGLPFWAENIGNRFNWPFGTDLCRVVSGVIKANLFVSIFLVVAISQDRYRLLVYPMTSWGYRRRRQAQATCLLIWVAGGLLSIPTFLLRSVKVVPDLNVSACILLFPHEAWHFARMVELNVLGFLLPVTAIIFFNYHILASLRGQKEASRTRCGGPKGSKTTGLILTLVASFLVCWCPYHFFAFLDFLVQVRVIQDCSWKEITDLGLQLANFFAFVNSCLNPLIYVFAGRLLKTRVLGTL
Experimental: The agonistic or antagonistic activity of substances can be quantified on the bradykinin receptor 1 (B1R) of the species human and rat using ectopically expressing cell lines (CHO K1 cells) and with the aid of a Ca^2+-sensitive dye (Fluo-4) using a fluorescent imaging plate reader (FLIPR). The indication in % activation is based on the Ca^2+ signal after addition of Lys-Des-Arg^9-bradykinin (0.5 nM) or Des-Arg^9-bradykinin (100 nM). Antagonists lead to suppression of the Ca^2+ influx after the addition of the agonist. % Inhibition compared with the maximum achievable inhibition is indicated.
The agonistic or antagonistic activity of substances can be determined on the bradykinin receptor 1 (B1R) of the species human and rat using the following assay. According to this assay, the Ca^2+ influx through the channel is quantified with the aid of a Ca^2+-sensitive dye (Fluo-4 type, Molecular Probes Europe BV, Leiden, Netherlands) using a Fluorescent Imaging Plate Reader (FLIPR, Molecular Devices, Sunnyvale, USA).
Chinese hamster ovary cells (CHO K1 cells) which have been stably transfected with the human B1R gene (hB1R cells) or with the B1R gene of the rat (rB1R cells) are used. For functional studies, the cells are plated out on black 96-well plates having a clear base (BD Biosciences, Heidelberg, Germany or Greiner, Frickenhausen, Germany) in a density of 20,000-35,000 cells/well. The cells are left overnight at 37° C. and with 5% CO2 in culture medium (hB1R cells: Nutrient Mixture Ham's F12, Gibco Invitrogen GmbH, Karlsruhe, Germany or DMEM, Sigma-Aldrich, Taufkirchen, Germany; rB1R cells: D-MEM/F12, Gibco Invitrogen GmbH, Karlsruhe, Germany), with 10 vol.% FBS (fetal bovine serum, Gibco Invitrogen GmbH, Karlsruhe, Germany or PAN Biotech GmbH, Aidenbach, Germany). On the following day, the cells are loaded for 60 minutes at 37° C. with 2.13 μM Fluo-4 (Molecular Probes Europe BV, Leiden, Netherlands) in HBSS buffer (Hank's buffered saline solution, Gibco Invitrogen GmbH, Karlsruhe, Germany) […] (Sigma-Aldrich, Taufkirchen, Germany) and 10 mM HEPES (Sigma-Aldrich, Taufkirchen, Germany). The plates are then washed twice with HBSS buffer, and HBSS buffer additionally containing 0.1% BSA (bovine serum albumin; Sigma-Aldrich, Taufkirchen, Germany), 5.6 mM glucose and 0.05% gelatin (Merck KGaA, Darmstadt, Germany) is added to the plates. After incubation for a further 20 minutes at room temperature, the plates are inserted into the FLIPR for Ca^2+ measurement. Alternatively, washing is carried out with buffer A (15 mM HEPES, 80 mM NaCl, 5 mM KCl, 1.2 mM CaCl2, 0.7 mM MgSO4, 2 g/l glucose, 2.5 mM probenecid) followed by loading with buffer A with added 2.5 μM Fluo-4 and 0.025% Pluronic F127 (Sigma-Aldrich, Taufkirchen, Germany). The cells are then washed twice with buffer A and incubated for 30 minutes at room temperature with buffer A additionally containing 0.05% BSA and 0.05% gelatin and are then inserted into the FLIPR for Ca^2+ measurement. The Ca^2+-dependent fluorescence is measured before and after the addition of substances (λex=488 nm, λem=540 nm). Quantification is carried out by measuring the highest fluorescence intensity (FC, fluorescence counts) over time.
The FLIPR protocol consists of two substance additions. Test substances (10 μM) are first pipetted onto the cells and the Ca^2+ influx is compared with the control (hB1R: Lys-Des-Arg^9-bradykinin>=50 nM; rB1R: Des-Arg^9-bradykinin 10 μM). This gives the activation in %, based on the Ca^2+ signal after addition of Lys-Des-Arg^9-bradykinin (>=50 nM) or Des-Arg^9-bradykinin (10 μM). After 10-20 minutes' incubation, Lys-Des-Arg^9-bradykinin (hB1R) or Des-Arg^9-bradykinin (rB1R) is applied in the concentration of the EC80, and the influx of Ca^2+ is likewise determined. Antagonists lead to suppression of the Ca^2+ influx. The % inhibition compared with the maximum achievable inhibition is calculated. […]

Row | % inh. (rat B1R) 10 μM [%] | SMILES
1 | 95 | COc1cc(C)c(S(=O)(=O)N2CCCCC2COc2nccc(N3CCC(c4cccs4)(N(C)C)CC3)n2)c(C)c1 (stereo not drawn) [G_CC-070, [1-[2-[[1-[(4-methoxy-2,6-dimethyl-phenyl)sulfonyl]-piperidin-2-yl]-methoxy]-pyrimidin-4-yl]-4-thiophen-2-yl-pipendin-4-yl]-dimethyl-amine]

same assay, conditions: CHO-K1, % inhibition rat B1R at 10 μM, read-out: % inh. (rat B1R) 10 μM

Row | SMILES | inhibition at 10 µM [%]
2 | COc1cc(C)c(S(=O)(=O)N(C)C(COc2nccc(N3CCC(OCCN4CCCC4)(c4cccnc4)CC3)n2)c2ccccc2)c(C)c1 (stereo not drawn) [G_CC-062, 4-methoxy-N,2,6-trimethyl-N-[1-phenyl-2-[[4-[4-(3-pyridyl)-4-(2-1-pyrrolidinylethoxy)-1-piperidinyl]-2-pyrimidinyl]oxy]ethyl]benzenesulfonamide] | 78
3 | COc1cc(C)c(S(=O)(=O)N(C)C(COc2nccc(N3CCN(C(=O)c4cccnc4)CC3)n2)c2ccccc2)c(C)c1 (stereo not drawn) [G_CC-064, 4-methoxy-N,2,6-trimethyl-N-[2-[[4-[4-[oxo-(3-pyridyl)methyl]-1-piperazinyl]-2-pyrimidinyl]oxy]-1-phenylethyl]benzenesulfonamide] | 55
4 | COc1cc(C)c(S(=O)(=O)N(C)C(COc2nccc(N3CC4CC3CN4Cc3ccc(F)cc3)n2)c2ccccc2)c(C)c1 (stereo not drawn) [G_CC-065, N-[2-[[4-[2-[(4-fluorophenyl)methyl]-2,5-diazabicyclo[2.2.1]heptan-5-yl]-2-pyrimidinyl]oxy]-1-phenylethyl]-4-methoxy-N,2,6-trimethylbenzenesulfonamide] | 58
5 | COc1cc(C)c(S(=O)(=O)N2CCCCC2COc2nccc(N3CCC(O)(c4cccnc4)CC3)n2)c(C)c1 (stereo not drawn) [G_CC-067, 1-[2-[[1-(4-methoxy-2,6-dimethylphenyl)sulfonyl-2-piperidinyl]methoxy]-4-pyrimidinyl]-4-(3-pyridyl)-4-piperidinol] | 104
6 | COc1cc(C)c(S(=O)(=O)N(C)C(COc2nccc(N3CCC4(CCN(Cc5ccccc5)C4)C3)n2)c2ccccc2)c(C)c1 (stereo not drawn) [G_CC-068, N-[2-[[4-(3-benzyl-3,7-diazaspiro[4.4]nonan-7-yl)-2-pyrimidinyl]oxy]-1-phenylethyl]-4-methoxy-N,2,6-trimethylbenzenesulfonamide] | 68
7 | CCCCC1(N(C)C)CCN(c2ccnc(OCC3CCCCN3S(=O)(=O)c3c(C)cc(OC)cc3C)n2)CC1 (stereo not drawn) [G_CC-069, [4-butyl-1-[2-[[1-[(4-methoxy-2,6-dimethyl-phenyl)sulfonyl]-piperidin-2-yl]-methoxy]-pyrimidin-4-yl]-piperidin-4-yl]-dimethyl-amine] | 102
8 | COc1cc(C)c(S(=O)(=O)N2CCCCC2COc2nccc(N(C)CCN3CCC(c4ccccc4)(N4CCCC4)CC3)n2)c(C)c1 (stereo not drawn) [G_CC-073, [2-[[1-[(4-methoxy-2,6-dimethyl-phenyl)sulfonyl]-piperidin-2-yl]-methoxy]-pyrimidin-4-yl]-methyl-[2-(4-phenyl-4-pyrrolidin-1-yl-piperidin-1-yl)-ethyl]-amine] | 101
9 | CCCCC1(N(C)C)CCN(CCN(C)c2ccnc(OCC3CCCCN3S(=O)(=O)c3c(C)cc(OC)cc3C)n2)CC1 (stereo not drawn) [G_CC-074, 2-(4-butyl-4-dimethylamino-piperidin-1-yl)-ethyl-[2-[[1-[(4-methoxy-2,6-dimethyl-phenyl)sulfonyl]-piperidin-2-yl]-methoxy]-pyrimidin-4-yl]-methyl-amine] | 102

The remaining lines, values ahead:

Row | inhibition at 10 µM [%] | SMILES
10 | 104 | COc1cc(C)c(S(=O)(=O)N2CCC[C@H]2COc2nccc(N(C)CCCN3CCC(c4ccccc4)(N(C)C)CC3)n2)c(C)c1 [G_CC-075, 3-(4-dimethylamino-4-phenyl-piperidin-1-yl)-propyl-[2-[[(2S)-1-[(4-methoxy-2,6-dimethyl-phenyl)sulfonyl]-pyrrolidin-2-yl]-methoxy]-pyrimidin-4-yl]-methyl-amine]
11 | 105 | COc1cc(C)c(S(=O)(=O)N2c3ccccc3C[C@H]2COc2nccc(N(C)CCCN3CCC(c4ccccc4)(N(C)C)CC3)n2)c(C)c1 [G_CC-076, 3-(4-dimethylamino-4-phenyl-piperidin-1-yl)-propyl-[2-[[(2S)-1-[(4-methoxy-2,6-dimethyl-phenyl)sulfonyl]-2,3-dihydro-1H-indol-2-yl]-methoxy]-pyrimidin-4-yl]-methyl-amine]
12 | 92 | COc1cc(C)c(S(=O)(=O)N2CC(Oc3nccc(N4CCN(CC5CCN(C)CC5)CC4)n3)C2)c(C)c1 [G_CC-077, 2-[1-[(4-methoxy-2,6-dimethyl-phenyl)sulfonyl]-azetidin-3-yl]oxy-4-[4-[(1-methyl-piperidin-4-yl)methyl]-piperazin-1-yl]-pyrimidine]
13 | 98 | COc1cc(C)c(S(=O)(=O)N2CCCCC2COc2nccc(N3CCC(Oc4ccccn4)CC3)n2)c(C)c1 (stereo not drawn) [G_CC-078, 2-[[1-[(4-methoxy-2,6-dimethyl-phenyl)sulfonyl]-piperidin-2-yl]-methoxy]-4-(4-pyridin-2-yloxy-piperidin-1-yl)-pyrimidine]
14 | 98 | COc1cc(C)c(S(=O)(=O)N2CCCCC2COc2nccc(N3CCC(Oc4cnccn4)CC3)n2)c(C)c1 (stereo not drawn) [G_CC-079, 2-[[1-[(4-methoxy-2,6-dimethyl-phenyl)sulfonyl]-piperidin-2-yl]-methoxy]-4-(4-pyrazin-2-yloxy-piperidin-1-yl)-pyrimidine]
15 | 103 | COc1cc(C)c(S(=O)(=O)N2CCCCC2COc2nccc(N3CCC(CCCN4CCCC4)(c4cccnc4)CC3)n2)c(C)c1 (stereo not drawn) [G_CC-080, 2-[[1-[(4-methoxy-2,6-dimethyl-phenyl)sulfonyl]-piperidin-2-yl]-methoxy]-4-[4-pyridin-3-yl-4-(3-pyrrolidin-1-yl-propyl)-piperidin-1-yl]-pyrimidine]
16 | 88 | COc1cc(C)c(S(=O)(=O)N2CCCCC2COc2nccc(N3CCCC3Cc3ccccn3)n2)c(C)c1 (stereo not drawn) [G_CC-081, 2-[[1-[(4-methoxy-2,6-dimethyl-phenyl)sulfonyl]-piperidin-2-yl]-methoxy]-4-[2-(pyridin-2-yl-methyl)-pyrrolidin-1-yl]-pyrimidine]
17 | 73 | COc1cc(C)c(S(=O)(=O)N2CCCCC2COc2nccc(N3CCC(O)(c4ccccn4)CC3)n2)c(C)c1 (stereo not drawn) [G_CC-082, 1-[2-[[1-[(4-methoxy-2,6-dimethyl-phenyl)sulfonyl]-piperidin-2-yl]-methoxy]-pyrimidin-4-yl]-4-pyridin-2-yl-piperidin-4-ol]
18 | 62 | COc1cc(C)c(S(=O)(=O)N2CCC[C@H]2COc2nccc(N3CCC(O)(c4ccccn4)CC3)n2)c(C)c1 [G_CC-083, 1-[2-[[(2S)-1-[(4-methoxy-2,6-dimethyl-phenyl)sulfonyl]-pyrrolidin-2-yl]-methoxy]-pyrimidin-4-yl]-4-pyridin-2-yl-piperidin-4-ol]

Source: US8269000B2, “Substituted pyrimidine and triazine compounds” (Gruenenthal GmbH, priority 2008, dated 2012)
